Reference: ChEMBL document CHEMBL3352163, “Anthracene-9, 10-dione derivatives induced apoptosis in human cervical cancer cell line (CaSki) by interfering with HPV E6 expression” (Eur J Med Chem, 2014)
Active and inactive are the calls of the source. No cut-off for these calls is given here.

Experiments:
[1] = Cytotoxicity against human CaSki cells at 10 uM after 72 hrs by MTT assay; format: functional, Ca-Ski
[2] = test system: HepG2; test: Cytotoxicity against human HepG2 cells at 10 uM after 72 hrs by MTT assay; format: functional
[3] = test system: SW-620; test: Cytotoxicity against human SW620 cells at 10 uM after 72 hrs by MTT assay; format: functional
[4] = Cytotoxicity against human KATO III cells at 10 uM after 72 hrs by MTT assay; format: functional, KATO III cell
[5] = Cytotoxicity against human ChaGo cells at 10 uM after 72 hrs by MTT assay; format: functional
[6] = Cytotoxicity against human CaSki cells after 72 hrs by MTT assay; format: functional, cell-based; conditions: Ca-Ski
[7] = Cell cycle arrest in human CaSki cells assessed as accumulation at G1 phase at 1.5 uM after 24 hrs by propidium iodide staining-based FACS analysis (reference value: 61.3%); format: functional; conditions: Ca-Ski
[8] = Cytotoxicity against human KATO III cells after 72 hrs by MTT assay; format: functional, cell-based, KATO III cell
[9] = test system: Ca-Ski; test: Induction of apoptosis in human CaSki cells carrying HPV assessed as increase in procaspase-3 protein expression after 24 hrs by Western blotting analysis; format: functional, cell-based
[10] = Cell cycle arrest in human CaSki cells assessed as accumulation at G2/M phase at 1.5 uM after 24 hrs by propidium iodide staining-based FACS analysis (reference value: 18.0%); format: functional; conditions: Ca-Ski
[11] = Cell cycle arrest in human CaSki cells assessed as accumulation at S phase at 1.5 uM after 24 hrs by propidium iodide staining-based FACS analysis (reference value: 14.1%); format: functional; conditions: Ca-Ski
[12] = Cytotoxicity against human WI38 cells after 72 hrs by MTT assay; format: cell-based; conditions: WI-38, 72 h
[13] = Cell cycle arrest in human CaSki cells assessed as accumulation at G2/M phase after 24 hrs by propidium iodide staining-based FACS analysis; format: functional; conditions: Ca-Ski
[14] = test system: Ca-Ski; test: Induction of apoptosis in human CaSki cells by DAPI staining-based fluorescence microscopy; format: functional, cell-based
[15] = Cell cycle arrest in human CaSki cells assessed as accumulation at G1 phase at 0.3 uM after 24 hrs by propidium iodide staining-based FACS analysis (reference value: 61.3%); format: functional; conditions: Ca-Ski
[16] = test system: Ca-Ski; test: Induction of apoptosis in human CaSki cells carrying HPV assessed as reduction of E6 mRNA expression at 0.3 uM after 24 hrs by RT-PCR analysis; format: functional, cell-based
[17] = test system: HepG2; test: Cytotoxicity against human HepG2 cells after 72 hrs by MTT assay; format: functional, cell-based; conditions: HepG2, 72 h
[18] = Cell cycle arrest in human CaSki cells assessed as accumulation at G2/M phase at 0.3 uM after 24 hrs by propidium iodide staining-based FACS analysis (reference value: 18.0%); format: functional; conditions: Ca-Ski
[19] = Cell cycle arrest in human CaSki cells assessed as accumulation at S phase at 3 uM after 24 hrs by propidium iodide staining-based FACS analysis (reference value: 14.1%); format: functional; conditions: Ca-Ski
[20] = test system: Ca-Ski; test: Induction of apoptosis in human CaSki cells carrying HPV assessed as downregulation of Akt phosphorylation after 24 hrs by Western blotting analysis; format: functional, cell-based
[21] = test system: Ca-Ski; test: Cytotoxicity against human CaSki cells at 10 uM in presence of glutathione relative to control; format: functional, cell-based
[22] = Cell cycle arrest in human CaSki cells assessed as accumulation at G0 phase at 1.5 uM after 24 hrs by propidium iodide staining-based FACS analysis (reference value: 1.5%); format: functional; conditions: Ca-Ski
[23] = Cytotoxicity against human ChaGo cells after 72 hrs by MTT assay; format: functional, cell-based
[24] = test system: Ca-Ski; test: Inhibition of colony formation in human CaSki cells at 5 uM after 24 hrs by crystal violet staining-based fluorescence microscopy; format: functional, cell-based
[25] = Cell cycle arrest in human CaSki cells assessed as accumulation at G2/M phase at 3 uM after 24 hrs by propidium iodide staining-based FACS analysis (reference value: 18.0%); format: functional; conditions: Ca-Ski
[26] = test system: Ca-Ski; test: Induction of apoptosis in human CaSki cells carrying HPV assessed as increase in p53 protein expression after 24 hrs by Western blotting analysis; format: functional, cell-based
[27] = Cell cycle arrest in human CaSki cells assessed as accumulation at S phase at 0.3 uM after 24 hrs by propidium iodide staining-based FACS analysis (reference value: 14.1%); format: functional; conditions: Ca-Ski
[28] = Cell cycle arrest in human CaSki cells assessed as accumulation at G0 phase at 0.3 uM after 24 hrs by propidium iodide staining-based FACS analysis (reference value: 1.5%); format: functional; conditions: Ca-Ski
[29] = Cell cycle arrest in human CaSki cells assessed as accumulation at G0 phase at 3 uM after 24 hrs by propidium iodide staining-based FACS analysis (reference value: 1.5%); format: functional; conditions: Ca-Ski
[30] = test system: Ca-Ski; test: Induction of apoptosis in human CaSki cells carrying HPV assessed as inhibition of Bcl-2 protein expression at 0.3 uM after 24 hrs by Western blotting analysis; format: functional, cell-based
[31] = Cell cycle arrest in human CaSki cells assessed as accumulation at G1 phase at 3 uM after 24 hrs by propidium iodide staining-based FACS analysis (reference value: 61.3%); format: functional; conditions: Ca-Ski

## O=C1c2ccccc2C(=O)c2c(O)ccc(O)c21 [QUINIZARIN]
[1]
  Activity: 48.6%
[2]
  Activity: 5.6%
[3]
  Activity: 21.1%
[4]
  Activity: 38.4%
[5]
  Activity: 12.3%
[6]
  IC50: > 10 µM

## Cc1ccc(S(=O)(=O)Oc2ccc(NCCc3ccccc3)c3c2C(=O)c2ccccc2C3=O)cc1
[1]
  Activity: 27.4%
[2]
  Activity: 8.3%
[3]
  Activity: 49.5%
[4]
  Activity: 42.5%
[5]
  Activity: 13.3%

## Cc1ccc(S(=O)(=O)Oc2ccc(N3CCOCC3)c3c2C(=O)c2ccccc2C3=O)cc1
[1]
  Activity: 43.8%
[2]
  Activity: 6.1%
[3]
  Activity: 22.3%
[4]
  Activity: 35.3%
[5]
  Activity: 11.3%

## CCN(CC)c1ccc(OS(=O)(=O)c2ccc(C)cc2)c2c1C(=O)c1ccccc1C2=O
[1]
  Activity: 50%
[2]
  Activity: 35.6%
[3]
  Activity: 32.6%
[4]
  Activity: 39.9%
[5]
  Activity: 43.9%
[6]
  IC50: 0.3 µM

## Cc1ccc(S(=O)(=O)Oc2ccc(NCc3ccccc3)c3c2C(=O)c2ccccc2C3=O)cc1
[7]
  Activity: 31.7%
[8]
  IC50: > 5.7 µM
[9]
  Activity: Active
[10]
  Activity: 33.8%
[1]
  Activity: 84.5%
[11]
  Activity: 13.7%
[12]
  IC50: > 10 µM
[13]
  Activity: Dose-dependent effect
[14]
  Activity: Dose-dependent effect
[2]
  Activity: 40.5%
[15]
  Activity: 62%
[16]
  Activity: Active
[17]
  IC50: > 5.7 µM
[18]
  Activity: 19.5%
[19]
  Activity: 14.2%
[20]
  Activity: Dose-dependent effect
[3]
  Activity: 49.1%
[4]
  Activity: 41.5%
[21]
  Activity: Active
[22]
  Activity: 11%
[23]
  IC50: > 5.7 µM
[24]
  inhibition: Active
[25]
  Activity: 46.2%
[26]
  Activity: Active
[5]
  Activity: 39.8%
[27]
  Activity: 12.6%
[28]
  Activity: 1.9%
[29]
  Activity: 10.9%
[30]
  inhibition: Active
[31]
  Activity: 12.4%

## Cc1ccc(S(=O)(=O)Oc2ccc(OS(=O)(=O)c3ccc(C)cc3)c3c2C(=O)c2ccccc2C3=O)cc1
[1]
  Activity: 36.4%
[2]
  Activity: 11.9%
[3]
  Activity: 22.2%
[4]
  Activity: 31.1%
[5]
  Activity: 5.8%

## Cc1ccc(S(=O)(=O)Oc2ccc(NCCN3CCOCC3)c3c2C(=O)c2ccccc2C3=O)cc1
[1]
  Activity: 42.8%
[2]
  Activity: 11.1%
[3]
  Activity: 19.4%
[4]
  Activity: 29.3%
[5]
  Activity: 4.9%
